Several values for one entry are separate records, joined by “and”; a condition that tells them apart may be missing. Equal values may be shown once. Inconclusive results and toxic doses are left out. Cut-off read from the data, not from the text of the source: active = T/C of 150% or more; inactive = T/C below 125%. Peptide text beside a SMILES is read from it. * marks the point of attachment. Boc = CC(C)(C)OC(=O)*
Tested on: L1210 leukemia ip in BDF1 mice, survival T/C
Experiment: NCI In Vivo Anticancer Drug Screen. Data for tumor model L1210 Leukemia (intraperitoneal) in B6D2F1 (BDF1) mice
Settings: endpoint: mean survival time, higher = longer survival
Summary of the method: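 Transplantable tumor model; survival measured in treated vs vehicle control mice. Value = treated/control.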

[1] = dose: 100.0 mg/kg/injection, schedule: Q04DX003 (ip), vehicle: Klucel (hydroxypropylcellulose) (HPC)
[2] = dose: 200.0 mg/kg/injection, schedule: Q04DX003 (ip), vehicle: Klucel (hydroxypropylcellulose) (HPC)
[3] = dose: 400.0 mg/kg/injection, schedule: Q04DX003 (ip), vehicle: Klucel (hydroxypropylcellulose) (HPC)
[4] = dose: 50.0 mg/kg/injection, schedule: Q01DX009 (ip), vehicle: saline
[5] = dose: 100.0 mg/kg/injection, schedule: Q01DX009 (ip), vehicle: saline
[6] = dose: 200.0 mg/kg/injection, schedule: Q01DX009 (ip), vehicle: saline
[7] = dose: 100.0 mg/kg/injection, schedule: Q04DX003 (ip), vehicle: saline
[8] = dose: 200.0 mg/kg/injection, schedule: Q04DX003 (ip), vehicle: saline
[9] = dose: 400.0 mg/kg/injection, schedule: Q04DX003 (ip), vehicle: saline
[10] = dose: 12.5 mg/kg/injection, schedule: Q01DX009 (ip), vehicle: Klucel (hydroxypropylcellulose) (HPC)
[11] = dose: 25.0 mg/kg/injection, schedule: Q01DX009 (ip), vehicle: Klucel (hydroxypropylcellulose) (HPC)
[12] = dose: 50.0 mg/kg/injection, schedule: Q01DX009 (ip), vehicle: Klucel (hydroxypropylcellulose) (HPC)
[13] = dose: 100.0 mg/kg/injection, schedule: Q01DX001 (ip), vehicle: saline
[14] = dose: 200.0 mg/kg/injection, schedule: Q01DX001 (ip), vehicle: saline
[15] = dose: 400.0 mg/kg/injection, schedule: Q01DX001 (ip), vehicle: saline
[16] = dose: 100.0 mg/kg/injection, schedule: Q01DX009 (ip), vehicle: Klucel (hydroxypropylcellulose) (HPC)
[17] = dose: 200.0 mg/kg/injection, schedule: Q01DX009 (ip), vehicle: Klucel (hydroxypropylcellulose) (HPC)

Measured: T/C

COc1cc(C(=O)O/N=C(\N)CCl)cc(OC)c1OC
inactive: dose: 6.25 mg/kg/injection, schedule: Q04DX002 (ip), vehicle: Klucel (hydroxypropylcellulose) (HPC) 92 % of control | dose: 12.5 mg/kg/injection, schedule: Q04DX002 (ip), vehicle: Klucel (hydroxypropylcellulose) (HPC) 88 % of control | dose: 25.0 mg/kg/injection, schedule: Q04DX002 (ip), vehicle: Klucel (hydroxypropylcellulose) (HPC) 88 % of control

O=C(CC(=O)c1ccccc1)Cc1ccccc1.O=C(CC(=O)c1ccccc1)Cc1ccccc1.[Cu]
inactive: [1] 94 % of control | [2] 97 % of control | [3] 104 % of control

CCCN(CCC)N=Nc1ccccc1-c1nc(N)nc(N)n1
inactive: [1] 101 % of control | [2] 119 % of control | [3] 109 % of control

COC(=O)C(N)Cc1ccc(OC(c2ccccc2)(c2ccccc2)c2ccccc2)cc1 (stereo not given)
inactive: [4] 101 % of control | [5] 103 % of control | [6] 100 % of control | dose: 400.0 mg/kg/injection, schedule: Q01DX009 (ip), vehicle: saline 100 % of control

CC(C)CC(NC(=O)OC(C)(C)C)C(=O)NC(Cc1c[nH]c2ccccc12)C(=O)N1CCCC1C(=O)NCC(N)=O (stereo not given) (Boc-LWPG-NH2; configuration not given here)
inactive: [7] 93 % of control | [8] 90 % of control | [9] 97 % of control

CC(NP1(=O)OCC(C)([N+](=O)[O-])CO1)c1ccccc1 (stereo not given)
inactive: dose: 50.0 mg/kg/injection, schedule: Q01DX001 (ip), vehicle: carboxymethylcellulose (CMC) 97 % of control | dose: 100.0 mg/kg/injection, schedule: Q01DX001 (ip), vehicle: carboxymethylcellulose (CMC) 113 % of control | dose: 200.0 mg/kg/injection, schedule: Q01DX001 (ip), vehicle: carboxymethylcellulose (CMC) 115 % of control | dose: 400.0 mg/kg/injection, schedule: Q01DX001 (ip), vehicle: carboxymethylcellulose (CMC) 95 % of control

CCN(Cc1ccc(Cl)c(Cl)c1)c1ccc2nc(N)nc(N)c2c1C
inactive: dose: 1.56 mg/kg/injection, schedule: Q01DX009 (ip), vehicle: water 110 % of control | dose: 3.12 mg/kg/injection, schedule: Q01DX009 (ip), vehicle: water 103 % of control and 110 % of control | dose: 6.25 mg/kg/injection, schedule: Q01DX009 (ip), vehicle: water 116 % of control and 124 % of control | dose: 12.5 mg/kg/injection, schedule: Q01DX009 (ip), vehicle: water 121 % of control | dose: 25.0 mg/kg/injection, schedule: Q01DX009 (ip), vehicle: water 110 % of control

N#CCNC(=O)c1ccccc1
inactive: [10] 101 % of control | [11] 104 % of control | dose: 25.0 mg/kg/injection, schedule: Q04DX003 (ip), vehicle: Klucel (hydroxypropylcellulose) (HPC) 98 % of control | [12] 102 % of control | dose: 50.0 mg/kg/injection, schedule: Q04DX003 (ip), vehicle: Klucel (hydroxypropylcellulose) (HPC) 98 % of control

CC(C)(C)c1cc(C#N)cc(Br)c1OP(=O)(Oc1c(Br)cc(C#N)cc1C(C)(C)C)c1ccccc1
inactive: dose: 100.0 mg/kg/injection, schedule: Q04DX002 (ip), vehicle: saline with Tween-80 95 % of control | dose: 200.0 mg/kg/injection, schedule: Q04DX002 (ip), vehicle: saline with Tween-80 92 % of control | dose: 400.0 mg/kg/injection, schedule: Q04DX002 (ip), vehicle: saline with Tween-80 97 % of control

CCNC(=O)c1cc(NC(=O)c2ccc(C(=O)Nc3cc(C(=O)NCC)cc(C4=NCCN4)c3)cc2)cc(C2=NCCN2)c1
inactive: dose: 14.25 mg/kg/injection, schedule: Q01DX015 (ip), vehicle: water 101 % of control | dose: 28.5 mg/kg/injection, schedule: Q01DX015 (ip), vehicle: water 98 % of control | dose: 57.0 mg/kg/injection, schedule: Q01DX015 (ip), vehicle: water 116 % of control

CCOC(=O)CCC(C(=O)OCC)C(=O)OCC
inactive: dose: 100.0 mg/kg/injection, schedule: Q01DX009 (ip), vehicle: saline with Tween-80 86 % of control | dose: 100.0 mg/kg/injection, schedule: Q04DX003 (ip), vehicle: saline with Tween-80 106 % of control | dose: 200.0 mg/kg/injection, schedule: Q01DX009 (ip), vehicle: saline with Tween-80 88 % of control | dose: 200.0 mg/kg/injection, schedule: Q04DX003 (ip), vehicle: saline with Tween-80 103 % of control | dose: 400.0 mg/kg/injection, schedule: Q01DX009 (ip), vehicle: saline with Tween-80 88 % of control | dose: 400.0 mg/kg/injection, schedule: Q04DX003 (ip), vehicle: saline with Tween-80 94 % of control

CC(=O)NC1C(=O)NS(=O)(=O)C1c1ccccc1 (stereo not given)
inactive: [4] 96 % of control and 97 % of control | [13] 104 % of control and 92 % of control | [5] 97 % of control and 94 % of control | [14] 92 % of control | [6] 94 % of control and 91 % of control | [15] 92 % of control

Cc1ccc(OC(=O)Nc2ccc(C(=O)O)c(O)c2)cc1
inactive: [5] 96 % of control | [7] 96 % of control | [6] 89 % of control | [8] 93 % of control | [9] 95 % of control

CCCCCCC(/C=N/NC(=O)CCCCCCCCC(=O)N/N=C/C(=C/c1ccccc1)CCCCCC)=C\c1ccccc1
inactive: [16] 93 % of control | [17] 98 % of control | dose: 400.0 mg/kg/injection, schedule: Q01DX009 (ip), vehicle: Klucel (hydroxypropylcellulose) (HPC) 91 % of control

O=C1CCC=C(c2cccc([N+](=O)[O-])c2)O1
inactive: [1] 100 % of control | [2] 94 % of control | [3] 94 % of control

ClC(Cl)(Cl)c1nccnc1Br
inactive: [10] 111 % of control | [11] 94 % of control | [12] 94 % of control and 104 % of control

OC1C2CCC(CC2)C1O (stereo not given)
inactive: dose: 4.5 mg/kg/injection, schedule: Q01DX009 (ip), vehicle: saline with Tween-80 92 % of control | dose: 4.5 mg/kg/injection, schedule: Q04DX003 (ip), vehicle: other 108 % of control | dose: 9.0 mg/kg/injection, schedule: Q01DX009 (ip), vehicle: saline with Tween-80 92 % of control | dose: 9.0 mg/kg/injection, schedule: Q04DX003 (ip), vehicle: other 101 % of control | dose: 9.75 mg/kg/injection, schedule: Q01DX001 (ip), vehicle: other 104 % of control | dose: 18.0 mg/kg/injection, schedule: Q01DX009 (ip), vehicle: saline with Tween-80 86 % of control | dose: 18.0 mg/kg/injection, schedule: Q04DX003 (ip), vehicle: other 106 % of control | dose: 18.5 mg/kg/injection, schedule: Q01DX001 (ip), vehicle: other 107 % of control

N#Cc1ccccc1CCc1ccccc1
inactive: dose: 50.0 mg/kg/injection, schedule: Q01DX001 (ip), vehicle: saline 106 % of control | [13] 102 % of control | [14] 106 % of control | [15] 98 % of control

O=C(c1ccccc1)c1ccccc1
inactive: [12] 96 % of control | dose: 75.0 mg/kg/injection, schedule: Q04DX003 (ip), vehicle: saline 100 % of control | [16] 101 % of control | dose: 150.0 mg/kg/injection, schedule: Q04DX003 (ip), vehicle: saline 100 % of control | [17] 97 % of control | dose: 300.0 mg/kg/injection, schedule: Q04DX003 (ip), vehicle: saline 104 % of control

Reference: PubChem BioAssay AID248 (DTP/NCI, 2004)
